Test results reported in patent US12594263B2, “CBL inhibitors and compositions for expansion of immune cells” (Nurix Therapeutics, Inc., priority 2019, dated 2026).
“Also recorded” adds a separate entry of the source.

Tests used:
[1] = test system: OT-1 cells; experiment: In vivo frequency, persistence and exhaustion markers of transferred OT-1 cells (blood, spleen, tumor, FACS); design: species or system mouse
Experimental: (§1) Dead cells were removed (Miltenyi Biotec Cat #130-090-101) prior to transfer in vivo to monitor their trafficking and function in an EG.7 lymphoma model, which expresses the OVA antigen. Approximately five million cells per mouse were transferred to mice having an average tumor burden of about 70 mm^3. Following in vivo transfer of the OT-1 cells, antitumor response was monitored over time and the quality and quantity of immune response were assessed at various time points.
(§2) The expanded OT-1 cells were characterized by FACS analysis and transferred into E.G7-OVA mice, which bear ovalbumin (OVA) expressing tumors. Following in vivo transfer of expanded OT-1 cells, antitumor response was monitored over time and the quality and quantity of immune response was assessed at various time points. Analysis included FACS analysis on blood, tumor, and spleen samples. Analysis also included re-stimulation of splenocytes with OVA Class I peptide to evaluate the multifunctionality of the antigen-specific effector T cells.
(§3) On Day 0, E.G7-OVA cells were implanted into each mouse. On Day 5, approximately 5×10^6 in vitro expanded OT-1 cells were injected into the tail of each mouse. On Day 9, blood was analyzed by FACS. On Day 14, blood, tumor and spleen samples were analyzed by FACS. On Day 27, blood was analyzed by FACS. Tumor volume was measured approximately every five days through about 50 days post implant.
OT-1 cells were expanded according to the previous examples and administered to E.G7-OVA mice, which bear ovalbumin (OVA) expressing tumors. The cells were evaluated for their in vivo properties.
Expanded OT-1 cells were assessed in blood 4 days and 22 days after transfer.
Expanded OT-1 cells were assessed in tumors 4 days after transfer.

[2] = test system: E.G7-OVA tumors; experiment: Adoptive transfer of ex vivo expanded OT-1 cells into E.G7-OVA tumor-bearing mice: tumor volume and survival; type: in vivo, mouse
Experimental: as §1, §2, §3

[3] = test system: breast TIL; experiment: CDR3 diversity of expanded breast TIL (iRepertoire sequencing); type: cell-based, human; conditions: 14 days in GREX 10 (FIGS. 32A-C)
Experimental: TIL were cultured for 14 days in GREX™10. […] The raw data were analyzed by iRepertoire using IRmap programs with a modified Smith-Waterman algorithm. Using CDR3algebra software, the calculation of shared CDR3s across samples with the indicated treatment was assessed. […] All CDR3 frequencies were scaled to 10 million reads to account for differences in read depth among samples. Data was normalized so that each uCDR3-VDJ combination was treated as a quantity of 1 regardless of read count, and then analyzed for V usage and J usage.

[4] = test system: human T cells from donor PBMC; experiment: Flow cytometry immunophenotyping of T cells expanded from donor PBMC; type: cell-based
Text: At day eleven, cells were pooled and counted, and immunophenotyped at day 11 by flow cytometry by measuring expression of lineage (CD4, CD8) and differentiation (including CD45RA, CD45RO, CD95, CCR7, CD62L, TCF1, PD-1, TIM3, LAG3) markers.
T lymphocytes were defined based on lineage and differentiation marker expression according to the developmental model (Restifo, Blood, 124:476-477, 2014), as shown in Table 4.

[5] = test system: OT-1 CD8+ T cells; experiment: Ex vivo expansion and immunophenotyping of OT-1 CD8+ T cells; type: cell-based, mouse; conditions: 1 μM, three days, plate-bound anti-CD3
Text: Antigen specific T cells from transgenic mice can be leveraged as a model for CAR T or TIL expansion ex vivo with a Cbl inhibitor. The OT-1 transgenic animals, that are commercially available, have CD8 T cells that recognize OVA peptide aa 257-264 when presented by the MHC I molecule. CD8+ T cells from OT-1 mice were isolated from a single cell suspension of splenocytes by negative selection (StemCell Technologies cat #19853 EasySep™ Mouse CD8+ T Cell Isolation Kit). Cell were then resuspended in complete media (RPMI1640, 10% heat inactivated FBS, 1× Penicillin/Streptomycin, 1× Glutamine and β-mercaptoethanol) at concentration of 0.5×10^6 per mL. Six well tissue culture plates (Falcon) were coated with 2 ug/mL of anti-mouse CD3 (Bio Xcell Cat #BE0001-1-R100 mg InVivoMAb anti-mouse CD3ε Clone: 145-2C11) for >3 hrs at 37° C. and washed with PBS (MediaTech) prior to cell addition. […] Following three days of OT-1 T cell activation and expansion the cells were collected, counted and immunophenotyped by flow cytometry by measuring expression of differentiation and additional T cell makers including: CD3, CD4, CD8, CD45, CD25, Granzyme B, CD107a, CD127, PD-1, TIM3, LAG3, KLRG-1, ICOS, TCF1, Ki67, T-bet and FOXP3.

[6] = second study, anti-CD3 stimulated OT-1 cells

## C[C@@H]1CN(Cc2cc3c(c(C(F)(F)F)c2)CN(c2cccc(C4(Cc5nncn5C)COC4)c2)C3=O)CCC1(F)F [Compound 103]
[1]; OT-1 cells after transfer
  Cells expressing stem markers TCF1+, PD-1+ and TIM-3+: greater percentage of cells that expressed stem markers
[1]; blood, 4 or 9 days after transfer (FIG. 10)
  Frequency of OT-1 cells in total CD8+ T cells and CD45+ cells and persistence: higher frequency in total CD8+ T cells and CD45+ cells and in vivo persistence in the blood
[1]; blood, 4 days and 22 days after transfer (FIGS. 13A, 13B)
  Frequency of OT-1 cells in total CD45+ cells and persistence: higher frequency in total CD45+ cells and persisted longer than cells expanded with IL-2 alone
[1]; tumor, versus IL-2 alone (FIGS. 14B, 14C)
  Expression of exhaustion markers PD1, TIM3, LAG3: lower level of expression of exhaustion markers
[1]; tumors, 4 days after transfer (FIG. 14A)
  Tumor infiltration, frequency of OT-1 cells in total CD45+ cells: increased ability to infiltrate the tumor
[2]; 3-day ex vivo exposure, alone or in combination with IL-2
  Anti-tumor phenotype of transferred T cells: conferred a lasting anti-tumor phenotype for over a month
[2]; expansion at 1 μM, IL-2 300 IU, E.G7-OVA mice
  Potency of expanded CD8+ OT-1 cells (tumor volume, FIGS. 11A and 11B): at least as potent as CD8+OT-1 cells expanded with IL-2
[2]; mice subcutaneously implanted with E.G7-OVA cells
  Rejection of established tumors by expanded OT-1 cells (FIG. 9): potent effectors capable of rejecting established tumors
[2]; [6]
  Long-term survival (FIG. 12B): improved long-term survival
  Potency of expanded OT-1 cells, inhibition of tumor growth (FIG. 12A): increased potency compared to IL-2 expanded cells; also recorded: increased potency compared to TL-2 expanded cells
[3]
  Unique CDR3s: increased
[4]; 1 μM Cbl inhibitor alone, versus IL-2 alone
  Percentage of CD8+ cells in culture: higher percentages of CD8+ cells than those cultured in IL-2 alone
[4]; donor PBMC, Table 7
  Phenotype of human T cells expanded ex vivo: TSCM (CD45RA+, CD95+, CCR7+, CD62L+), TCM (CD45RO+, CD95+, CCR7+, CD62L+) or TEM (CD45RO+, CD95+, CCR7−, CD62L−) phenotype
[4]; donor PBMC, 0.1 μM Cbl-i, alone or with IL-2
  CD4 TsCM, percentage of total cell number on day 11: 12%
[4]; donor PBMCs, FIGS. 2A and 2B
  Selective expansion of CD8+ T lymphocytes: selectively expand CD8+ T lymphocytes from donor PBMCs
[5]
  Effector function of expanded OT-1 cells (granzyme and T-bet): trend of increased effector function
